Patent publication US9080214B2, “Genetic markers for efficacy of iloperidone in the treatment of psychotic symptoms” (Vanda Pharmaceuticals, Inc., priority 2007, dated 2015)

Test system: individuals diagnosed with schizophrenia
Test: Change in PANSS-N subscale by SNP genotype, patients on iloperidone 24 mg/day b.i.d. for 28 days (MMRM)
Type: in vivo, human
Source text: Earlier studies investigated an association between a polymorphism in the CNTF gene and iloperidone efficacy as well as associations between CYP2D6 and KCNQ1 genotypes and changes in QT interval following the administration of iloperidone. The present study involved the genotyping of DNA samples collected from 426 individuals diagnosed with schizophrenia in an attempt to identify additional SNPs associated with iloperidone efficacy. Each sample was genotyped at more than 500,000 SNP loci using the GeneChip® Human Mapping 500K Array Set (Affymetrix, Santa Clara, Calif.) and using assays developed in-house. Approximately half of the participants in the study were administered 24 mg/day of iloperidone, b.i.d., for 28 days. About 25% of the patients were administered ziprasidone. The remaining participants were administered a placebo. Three analyses of the PANSS-T were conducted. 1) A two-step approach where samples were randomly split into 2 groups of iloperidone-treated patients used to discover SNPs associated with changed in PANSS-T (Discovery phase) and a second group to confirm the 100 most significant SNPs (Confirmatory phase). 2) A one-step approach using the Last Observation Carried Forward (LOCF) PANSS-T data of all iloperidone-treated patients. For each SNP, the most parsimonious genetic model (e.g., homozygous for one allele v. all other genotypes [i.e., AA v. AB and BB], heterozygous v. homozygous [i.e., AB v. AA and BB]) was established with respect to iloperidone efficacy using a one-way analysis of variance (ANOVA). 3) A Mixed-effects Model Repeated Measures (MMRM) analysis was subsequently conducted using the best genetic model of each SNP in the MMRM model. MMRM analyses were also conducted with the PANSS subscales PANSS-P, PANSS-N, and PANSS-GP. The SNPs with a statistically significant association in all 3 analyses of PANSS-T, as well as the best of each analysis were considered significant findings and are listed below in Table 1. Results for each of these SNPs with the PANSS-T scales and with the three subscales PANSS-P, PANSS-N, and PANSS-GP are shown in Tables 2, 3, 4, and 5, respectively. […] In the present case of iloperidone efficacy, it is likely that different markers are more specifically associated with one or a few specific clinical symptoms, which is reflected in the improvement measured in separate subscales.

SMILES: COc1cc(C(C)=O)ccc1OCCCN1CCC(c2noc3cc(F)ccc23)CC1 [iloperidone, 1-[4-[3-[4-(6-fluoro-1,2-benzisoxazol-3-yl)-1-piperidinyl]propoxy]-3-methoxyphenyl]ethanone]
- mean of change in PANSS-N (SNP_A-1819750 (CREG1) genotype A_A): −5.35
- mean of change in PANSS-N (SNP_A-1819750 (CREG1) genotype A_B* (lowest response)): −2.01
- mean of change in PANSS-N (SNP_A-1819750 (CREG1) genotype B_B): −4.01
- mean of change in PANSS-N (SNP_A-1819750 (CREG1) genotype nonAB** (highest response)): −4.45
- mean of change in PANSS-N (SNP_A-1860353 (RAP1B) genotype A_A** (highest response)): −11.00
- mean of change in PANSS-N (SNP_A-1860353 (RAP1B) genotype A_B): −2.29
- mean of change in PANSS-N (SNP_A-1860353 (RAP1B) genotype B_B): −2.73
- mean of change in PANSS-N (SNP_A-1860353 (RAP1B) genotype nonAA* (lowest response)): −2.65
- mean of change in PANSS-N (SNP_A-1934663 genotype A_A): −3.38
- mean of change in PANSS-N (SNP_A-1934663 genotype A_B): −3.94
- mean of change in PANSS-N (SNP_A-1934663 genotype B_B* (lowest response)): −2.06
- mean of change in PANSS-N (SNP_A-1934663 genotype nonBB** (highest response)): −3.82
- mean of change in PANSS-N (SNP_A-1973093 (KIAA0040) genotype A_A): −3.32
- mean of change in PANSS-N (SNP_A-1973093 (KIAA0040) genotype A_B* (lowest response)): −1.85
- mean of change in PANSS-N (SNP_A-1973093 (KIAA0040) genotype B_B): −3.46
- mean of change in PANSS-N (SNP_A-1973093 (KIAA0040) genotype nonAB** (highest response)): −3.43
- mean of change in PANSS-N (SNP_A-1975928 (SLC2A9) genotype A_A): −2.87
- mean of change in PANSS-N (SNP_A-1975928 (SLC2A9) genotype A_B): −2.95
- mean of change in PANSS-N (SNP_A-1975928 (SLC2A9) genotype B_B* (lowest response)): 0.62
- mean of change in PANSS-N (SNP_A-1975928 (SLC2A9) genotype nonBB** (highest response)): −2.89
- mean of change in PANSS-N (SNP_A-1987915 (GPR126) genotype A_A): −1.91
- mean of change in PANSS-N (SNP_A-1987915 (GPR126) genotype A_B): −2.03
- mean of change in PANSS-N (SNP_A-1987915 (GPR126) genotype B_B** (highest response)): −4.28
- mean of change in PANSS-N (SNP_A-1987915 (GPR126) genotype nonBB* (lowest response)): −2.00
- mean of change in PANSS-N (SNP_A-2007721 (LOC58486) genotype A_A): 0.51
- mean of change in PANSS-N (SNP_A-2007721 (LOC58486) genotype A_B** (highest response)): −4.73
- mean of change in PANSS-N (SNP_A-2007721 (LOC58486) genotype B_B): −2.33
- mean of change in PANSS-N (SNP_A-2007721 (LOC58486) genotype nonAB* (lowest response)): −2.31
- mean of change in PANSS-N (SNP_A-2044214 (HNT) genotype A_A): −3.32
- mean of change in PANSS-N (SNP_A-2044214 (HNT) genotype A_B* (lowest response)): −2.16
- mean of change in PANSS-N (SNP_A-2044214 (HNT) genotype B_B): −3.05
- mean of change in PANSS-N (SNP_A-2044214 (HNT) genotype nonAB** (highest response)): −3.22
- mean of change in PANSS-N (SNP_A-2048427 (NPAS3) genotype A_A): −4.12
- mean of change in PANSS-N (SNP_A-2048427 (NPAS3) genotype A_B): −4.30
- mean of change in PANSS-N (SNP_A-2048427 (NPAS3) genotype B_B* (lowest response)): −2.27
- mean of change in PANSS-N (SNP_A-2048427 (NPAS3) genotype nonBB** (highest response)): −4.28
- mean of change in PANSS-N (SNP_A-2070454 (NKX2-5) genotype A_A): −1.86
- mean of change in PANSS-N (SNP_A-2070454 (NKX2-5) genotype A_B): −2.40
- mean of change in PANSS-N (SNP_A-2070454 (NKX2-5) genotype B_B** (highest response)): −4.58
- mean of change in PANSS-N (SNP_A-2070454 (NKX2-5) genotype nonBB* (lowest response)): −2.23
- mean of change in PANSS-N (SNP_A-2076797 (NUDT9P1) genotype A_A): −1.75
- mean of change in PANSS-N (SNP_A-2076797 (NUDT9P1) genotype A_B** (highest response)): −4.06
- mean of change in PANSS-N (SNP_A-2076797 (NUDT9P1) genotype B_B): −1.62
- mean of change in PANSS-N (SNP_A-2076797 (NUDT9P1) genotype nonAB* (lowest response)): −1.69
- mean of change in PANSS-N (SNP_A-2103099 (HTR1A) genotype A_A): −4.08
- mean of change in PANSS-N (SNP_A-2103099 (HTR1A) genotype A_B* (lowest response)): −2.09
- mean of change in PANSS-N (SNP_A-2103099 (HTR1A) genotype B_B): −3.40
- mean of change in PANSS-N (SNP_A-2103099 (HTR1A) genotype nonAB** (highest response)): −3.65
- mean of change in PANSS-N (SNP_A-2120958 genotype A_A): −3.15
- mean of change in PANSS-N (SNP_A-2120958 genotype A_B): −2.84
- mean of change in PANSS-N (SNP_A-2120958 genotype B_B* (lowest response)): −1.11
- mean of change in PANSS-N (SNP_A-2120958 genotype nonBB** (highest response)): −3.03
- mean of change in PANSS-N (SNP_A-2170121 (C6) genotype A_A): −2.14
- mean of change in PANSS-N (SNP_A-2170121 (C6) genotype A_B** (highest response)): −4.78
- mean of change in PANSS-N (SNP_A-2170121 (C6) genotype B_B): −2.52
- mean of change in PANSS-N (SNP_A-2170121 (C6) genotype nonAB* (lowest response)): −2.17
- mean of change in PANSS-N (SNP_A-2274533 (LZTS1) genotype A_A** (highest response)): −3.67
- mean of change in PANSS-N (SNP_A-2274533 (LZTS1) genotype A_B): −1.52
- mean of change in PANSS-N (SNP_A-2274533 (LZTS1) genotype B_B): −1.16
- mean of change in PANSS-N (SNP_A-2274533 (LZTS1) genotype nonAA* (lowest response)): −1.44
- mean of change in PANSS-N (SNP_A-2283283 (XKR4) genotype A_A* (lowest response)): −0.95
- mean of change in PANSS-N (SNP_A-2283283 (XKR4) genotype A_B): −3.20
- mean of change in PANSS-N (SNP_A-2283283 (XKR4) genotype B_B): −3.62
- mean of change in PANSS-N (SNP_A-2283283 (XKR4) genotype nonAA** (highest response)): −3.37
- mean of change in PANSS-N (SNP_A-2284243 (GRIA4) genotype A_A): −3.70
- mean of change in PANSS-N (SNP_A-2284243 (GRIA4) genotype A_B): −3.46
- mean of change in PANSS-N (SNP_A-2284243 (GRIA4) genotype B_B* (lowest response)): −0.52
- mean of change in PANSS-N (SNP_A-2284243 (GRIA4) genotype nonBB** (highest response)): −3.55
- mean of change in PANSS-N (SNP_A-4204396 (CDH13) genotype A_A): −3.22
- mean of change in PANSS-N (SNP_A-4204396 (CDH13) genotype A_B): −3.12
- mean of change in PANSS-N (SNP_A-4204396 (CDH13) genotype B_B* (lowest response)): 1.62
- mean of change in PANSS-N (SNP_A-4204396 (CDH13) genotype nonBB** (highest response)): −3.18
- mean of change in PANSS-N (SNP_A-4212785 (PPP1R3B) genotype A_A* (lowest response)): 4.72
- mean of change in PANSS-N (SNP_A-4212785 (PPP1R3B) genotype A_B): −3.06
- mean of change in PANSS-N (SNP_A-4212785 (PPP1R3B) genotype B_B): −3.11
- mean of change in PANSS-N (SNP_A-4212785 (PPP1R3B) genotype nonAA** (highest response)): −3.09
- mean of change in PANSS-N (SNP_A-4230979 (ASB3) genotype A_A): −1.72
- mean of change in PANSS-N (SNP_A-4230979 (ASB3) genotype A_B): −2.02
- mean of change in PANSS-N (SNP_A-4230979 (ASB3) genotype B_B** (highest response)): −4.23
- mean of change in PANSS-N (SNP_A-4230979 (ASB3) genotype nonBB* (lowest response)): −1.96
- mean of change in PANSS-N (SNP_A-4256833 (MLCK) genotype A_A): −3.58
- mean of change in PANSS-N (SNP_A-4256833 (MLCK) genotype A_B* (lowest response)): −0.86
- mean of change in PANSS-N (SNP_A-4256833 (MLCK) genotype B_B): −3.69
- mean of change in PANSS-N (SNP_A-4256833 (MLCK) genotype nonAB** (highest response)): −3.68
- mean of change in PANSS-N (SNP_A-4258279 (RRM1) genotype A_A): −2.57
- mean of change in PANSS-N (SNP_A-4258279 (RRM1) genotype A_B* (lowest response)): −1.09
- mean of change in PANSS-N (SNP_A-4258279 (RRM1) genotype B_B): −3.34
- mean of change in PANSS-N (SNP_A-4258279 (RRM1) genotype nonAB** (highest response)): −3.33
